From PMC3703888, “Integration of Different “-omics” Technologies Identifies Inhibition of the IGF1R-Akt-mTOR Signaling Cascade Involved in the Cytotoxic Effect of Shikonin against Leukemia Cells” (Evidence-based Complementary and Alternative Medicine : eCAM, 2013)

What was measured:
U937 cells = assay: Stable-isotope dimethyl labeling quantitative proteomics; format: cell-based; conditions: 0.3 μM shikonin (IC50), 24 h vs DMSO
Procedure: To examine quantitative changes in the proteome of U937 leukemia cells after shikonin treatment, the dimethyl labeling proteomics analysis was performed. Briefly, 5 × 10^6 U937 cells were seeded in 10 mL RPMI 1640 medium in a 25 cm^2 culture flask. Subsequently, cells were treated with 0.3 μM shikonin (IC50) or DMSO as solvent control for 24 h. After incubation cells were washed with PBS and protein extraction was performed using the M-PER Mammalian Protein Extraction Reagent (Thermo Scientific, Germany) containing a protease inhibitor cocktail (Roche, Germany), cells were incubated with the extraction reagent for 40 min at 4°C. After incubation, cellular debris was removed by centrifugation at 14000 ×g for 15 min. Supernatants were transferred into new tubes and an acetone precipitation of the proteins was performed. After precipitation, the acetone was removed and the protein pellet in each of the tube was further diluted to 1 μg/μL with 50 mM TEABC and reduced with 5 mM TCEP for 1 h at 37°C, followed by alkylation using 2 mM MMTS for 45 min at room temperature. For the proteolytic digestion, the modified tube-gel digestion protocol was applied and the detergent residue was checked using the method described previously. Two 200 μg proteolytic protein mixtures from DMSO and shikonin treated cells were first dissolved in 200 μL of 100 mM TEABC (pH 8.5) and, respectively, mixed with 20 μL of formaldehyde and formaldehyde-13C, d2 (4%, diluted with H2O). After vortexing (5 min) and centrifugation, each of the sample solutions was mixed with 20 μL of 600 mM sodium cyanoborohydride solution. The sample solutions were vortexed (10 min) and centrifuged again and then allowed to react for 30 min at 25°C. To quench the reaction, ammonium hydroxide (7% in water, 10 μL) was added to each sample solution. Finally, 16 μL of formic acid was added to acidify each of the sample solutions and two samples were further combined for strong cation exchange (SCX) fractionation.
For SCX fractionation, the buffer SCX-A (5 mM KH2PO4 in 25% ACN at pH 3) and SCX-B (5 mM KH2PO4 and 350 mM KCl in 25% ACN at pH 3) were used as the mobile phase. The peptide mixtures were reconstituted in buffer SCX-A and then loaded into a PolySULFOETHYL A column (200 × 2.1 mm, 5 μm, 300Å, PolyLC, Columbia, MD) for 10 min at the flow rate of 0.2 mL/min. Peptides were fractionated using a 75 min gradient from 0 to 100% of buffer SCX-B. Fractions were collected every three minutes from the retention time of 10 to 55 min using a fraction collector (BioFrac Fraction Collector, BioRad Laboratories, Hercules, CA). The peptide mixtures in each of the fraction were further analyzed by the LC-MS/MS.
LC-MS/MS analysis was performed with a nanoUHPLC system (nanoACQUITY UPLC, Waters, Millford, MA) coupled online to the nanoelectrospray source of a hybrid quadrupole time-of-flight mass spectrometer (Q-TOF-MS) (SYNAPT HDMS G2, Waters, Manchester, UK). For LC-MS/MS analysis, water with 0.1% FA and ACN with 0.1% FA were used as the mobile phase. The sample was injected into a trap column (Symmetry C18, 5 μm, 180 μm × 20 mm, Waters, Milford, MA) and separated online with a reverse phase column (BEH C18, 1.7 μm, 75 μm × 250 mm, Waters, Milford, MA) at the flow rate of 300 nL/min using either a 95 min gradient with 5–90% ACN/water ratio. The mass spectrometry instruments were all operated in the positive ion mode, and data-dependent acquisition methods were applied for all experiments. The acquisition settings were set to one full MS scan (350–1600 m/z) with a scan time of 1 second and switched to six product ion scans (50–1900 m/z) with 0.4 second scan time when a precursor ion charge was 2+, 3+, or 4+, and the intensity was higher than 200 counts. The data files generated from LC-MS/MS were processed by UniQua and further analyzed by the MASCOT and Trans Proteomics Pipeline (TPP) 1 version 4.4 rev. 1, and the details and criteria of data processing were described previously.

EGFR = system: EGFR; parameters: method as in PMID 14568164; conditions: previous studies ref 24; cited from earlier work

Compound: CC(C)=CC[C@@H](O)C1=CC(=O)c2c(O)ccc(O)c2C1=O [shikonin]
- FC protein 5′-Nucleotidase domain-containing protein 2 (U937 cells): −5.4
- FC protein 60S ribosomal protein L24 (U937 cells): −7.5
- FC protein ATP-dependent RNA helicase DDX3Y (U937 cells): −4.3
- FC protein Cell differentiation protein RCD1 homolog (U937 cells): +10.0
- FC protein Golgi phosphoprotein 3 (U937 cells): −3.5
- FC protein Heme oxygenase 1 (U937 cells): +14.3
- FC protein Heterogeneous nuclear ribonucleoprotein H2 (U937 cells): −4.5
- FC protein Hexokinase-1 (U937 cells): −20.5
- FC protein Histone H2B type 2-E (U937 cells): +7.1
- FC protein Histone H4 (U937 cells): +11.1
- FC protein LIM domain and actin-binding protein 1 (U937 cells): +6.7
- FC protein Leucine-rich repeat-containing protein 58 (U937 cells): −3.5
- FC protein Mannose-6-phosphate isomerase (U937 cells): +7.7
- FC protein Methylosome protein 50 (U937 cells): −4.0
- FC protein Neuronal-specific septin-3 (U937 cells): +6.7
- FC protein Rho GTPase-activating protein 4 (U937 cells): −3.1
- FC protein Schlafen family member 11 (U937 cells): +6.7
- FC protein Sorting nexin-17 (U937 cells): +9.1
- FC protein Vacuolar protein sorting-associated protein 11 homolog (U937 cells): −20.0
- FC protein WD repeat-containing protein 3 (U937 cells): +12.1
- EGFR phosphorylation (EGFR): inhibits EGFR phosphorylation
